In patent US20030021796A1, “Method of enhancing T cell immunity by selection of antigen specific T cells” (priority 2001, published 2003):
Entries after “also recorded” stand apart in the source; their conditions may differ.

Experiments:
[1] = test system: TCR^TgTCRα^− lymph node cells; assay: Proliferation of TCR transgenic lymph node cells stimulated with agonist peptides ([3H]thymidine incorporation); assay type: cell-based, mouse
Method: Antigen response of TCR transgenic cells. Proliferation of lymph node cells isolated from TCR^TgTCRα^−and TCR^TgTCRα^−2-M^−Ii^− mice injected with the selecting peptide was measured in response to antigen. Response of the TCR^TgTCRα^− lymph node cells to different agonist peptides was measured by proliferation assay in a 96-well plate. 10^5 responder cells were stimulated with peptides presented by 5×10^5 irradiated C57BL6 splenocytes. Agonist peptides were used at concentrations of 0.01, 0.1, 0.5, 1.0, 2.5, 5.0, 10.0 and 20.0 μM. After 3 days cells were pulsed with 1 μCi of [^3H]thymidine added to each well and after 18 hours thymidine incorporation was measured. The sequences of peptides used were: PCC50V (AEGFSYTVANKNKGIT), PCC50L (AEGFSYTLANKNKGIT), PCC50V54A (AEGFSYTVANKAKGIT), PCC46A49A50V54A (AEGASYAVANKAKGIT), PCC50F54A (AEGFSYTFANKAKGIT), neutral ceramidase (AGFFQYTLYILASEG) and IgGVH (NADFKTPATLTVDKA). All peptides were synthesized by FMOC (fluorenyl methoxycarbonyl) chemistry and purified by reversed-phase high-performance liquid chromatography. To compare the antigenic response of CD4^+ TCR Tg cells lymph node cells were collected from TCR^TgTCRα^− and TCR^TgTCRα^−H2-M^−Ii^− mice two weeks after peptide injection. Single cell suspensions were prepared and CD4^+ cells were sorted using magnetic beads coated with anti CD4 antibodies (MACS). Purity of sorted cells exceeded 85%. 2×10^4 of purified CD4^+ cells were used in proliferation assay. Cells were stimulated with increasing concentrations of agonist peptides presented by APCs from wild type or H2-M^−Ii^− mice. IgGVH derived peptide (20 μM) was used as a negative control. Peptides were presented by irradiated splenocytes from a C57BL6 mouse. Proliferation was measured after 3 days by thymidine incorporation by pulsing cells with 1 μCi of [^3H] thymidine for 18 hours. Antagonism assay was done by prepulsing 5×10^5 antigen-presenting cells per well for 2 hr. with 5 μM of the antigenic peptide PCC50V54A, washing, and then exposing them to varying concentrations of peptide analogs with 2×10^4 purified CD4^+ TCR^Tg lymphocytes as responder cells (Lyons et al., 1996). For antagonism assays the percent of proliferation inhibition was calculated as 100-100*(thymidine incorporation in the presence of antagonist/thymidine incorporation in the absence of antagonist) (Lyons et al., 1996).

[2] = test system: transgenic thymocytes; assay: Negative selection of transgenic thymocytes after i.p. peptide injection into TCR^TgTCRα^− mice (wild type A^b); assay type: in vivo, mouse
Method: (§1) Flow cytometry analysis. Monoclonal antibodies specific for CD4(RM4-5), CD8(53-6.7), VβB8(F23.1), CD69(H1.2F3), CD44(IM7) and CD62L(MEL-14) were purchased from PharMingen (San Diego, Calif.) and used according to manufacturer's recommendations. Cells were analyzed using a FACSCalibur instrument (Becton Dickinson, San Jose, Calif.) and CellQuest software. For intracellular stain cells were first stained for CD4 and CD8, fixed in 2% paraformaldehyde, permeabilized in 0.1% Tween-20 and stained with anti-bcl-2 antibody (Pharmingen) according to manufacturer instruction.
(§2) Peptide injections and surgical procedures. TCR^TgTCRα^− and TCR^TgTCRαH2-M^−Ii^− were injected i.p. with agonist and control peptides dissolved in PBS. After indicated time mice were sacrificed, thymus and lymph nodes were collected and single cell suspensions were prepared. Pups were injected with 2 μg of peptide subcutaneously 12-24 hours after birth and thymi were transplanted into recipient mice 24 hours after injection. 5-8 week old TCR^TgTCRα^− H2-M^−Ii^− mice were used for thymectomy or as thymic transplant recipients. Surgical procedures were performed as described (Coligan et al., 1997). Mice were handled according with the institutional guidance.
Characterization of peptide agonists for the PCC specific transgenic αβTCR. To examine the role of peptides during positive selection in vivo, the inventors generated transgenic mice expressing class II restricted TCR specific for analogs of a pigeon cytochrome C peptide PCC(43-58) presented by the A molecule (Kraj et al., 2001). This receptor recognizes analogs of PCC(43-58) in which aspartic acid in position 50 is replaced by amino acids with neutral/hydrophobic (PCC50V, PCC50V54A, PCC46A49A50V54A, PCC50L, PCC50F) side chains (FIG. 6 and FIG. 9). The TCR transgenic mice were backcrossed to C57BL6 TCRα^− knockout mice so that almost all T cells expressing transgenic TCR become CD4^+ T cells (FIG. 4A and FIG. 10A). Initially, the inventors examined the capacity of agonist peptides to induce negative selection of transgenic T cells.

[3] = test system: lymph node cells; assay: Repopulation of peripheral lymph nodes in peptide-injected TCR^TgTCRα^−H2-M^−Ii^− mice; assay type: in vivo, mouse
Method: as §1, §2

[4] = test system: transgenic thymocytes; assay: Fetal thymic organ cultures (FTOC) from TgTCRα^−H-2M^−Ii^− mice with peptide; assay type: cell-based, mouse; settings: continuous delivery of peptide at low concentration
Text: (§3) The TgTCRα^−H-2M^−Ii^− system enables the visualization of thymocyte positive selection in real time and in the native intrathymic environment. An in vitro system was setup where the transgenic thymocytes undergo efficient positive selection and commit to the CD4^+ lineage. […] These observations agreed with the previous reports in which CD8^+, but not CD4+, T cells could be positively selected by the specific peptide in FTOCs (Kenty et al., 1998; Liblau et al, 1996). Therefore, neonatal thymic organ cultures (NTOC) were established from TgTCRα^−-H-2M^−Ii^− neonates. The neonates received a single i.p. injection of the PCC50V54A peptide just after birth and were sacrificed 24 hours later when their thymuses were harvested.

[5] = test system: transgenic CD4^+ thymocytes; assay: Neonatal thymic organ cultures (NTOC) from peptide-injected TgTCRα^−H-2M^−Ii^− neonates; assay type: cell-based, mouse; settings: single i.p. injection just after birth, thymus harvested 24 hours later
Text: as §3

AEGFSYTVANKAKGIT [PCC50V54A, analog of pigeon cytochrome C peptide PCC(43-58)]
agonist potency / agonist properties ([1]; in vitro stimulation of transgenic T cells): strong agonist | recognition by the transgenic TCR / stimulation of transgenic cells ([1]; peptides presented by irradiated C57BL6 splenocytes): recognizes; also recorded: stimulate | negative selection of transgenic thymocytes ([2]; 20 μg i.p., 24 hours, thymus cellularity, annexin V, TUNNEL): does not induce negative selection; also recorded: did not induce negative selection | thymus cellularity ([2]; 20 μg, TgTCRα^−H-2M^−Ii^− or TgTCRα^−A^bwt mice): the same as in control mice | negative selection / deletion of transgenic thymocytes ([2]; 200 μg/mouse i.p., 24 hours): induced profound negative selection; also recorded: induced profound deletion | apoptotic cells by TUNNEL assay and annexin V staining ([2]; after peptide injection, 20 μg): failed to demonstrate apoptotic cells | CD4^+ cells in peripheral lymph nodes ([3]; after i.p. injection, about two weeks): increase in the number of CD4^+ cells | phenotype of peripheral CD4^+ cells (CD44, CD62L) ([3]; mouse, in vivo): had naïve phenotype | total number of lymph node cells ([3]; two weeks after injection): 44.1×10^6±9.8 | lineage commitment of thymocytes in FTOC [4]: the majority of thymocytes committed to the CD8 lineage | duration of continuous positive selection of CD4^+ thymocytes in NTOC [5]: 4 to 5 days
